Data published in patent US20070207195A1, “Genetic Screening for Polymorphisms in Human Genes that Increase or Decrease Sensitivity to Toxic Agents” (Applied Genetics Incorporated Dermatics, priority 2004, published 2007).

Test system: NCI screening panel tumor cell lines
Assay: Growth inhibition (GI50, sulforhodamine B) in NCI tumor cell line panel, correlated with polymorphic genotype
Assay type: cell-based, human
[1] = NOS3 t-786c, ratio of average GI(50) of genotypes, 48 h drug incubation

Method: The method tests a toxic agent over five 10-fold dilutions in cells for 48 hrs in a 5% CO2 atmosphere and 100% humidity. For most agents the highest concentration was 0.1 mM, but for the standard agents the highest well concentration depended on experience with the agent. DNA purified from each cell line was analyzed for SNPs at the alleles of interest. […] Cell suspensions were added to a microtiter plate and incubated for 24 h at 37° C. The drugs were added at concentrations spanning five 10-fold dilutions, and incubated for 48 h. The cells were assayed by staining the cells with sulforhodamine B, and a plate reader was used to read the optical densities. The results are expressed as a GI50 value, which is the drug concentration producing 50% growth inhibition, with correction for the cell count at time zero. […] The drug sensitivities for the polymorphs of each gene of interest were calculated in the following manner. For each drug, the average GI(50) for each polymorphic genotype was calculated, e.g., the GI(50) for the homozygous dominant, heterozygous and homozygous variant genotypes. Then the GI(50)s for all the drugs were analyzed among genotypes by nonparametric Friedman Repeated Measures ANOVA. In this test the GI(50) is only used for ranking among the genotypes for each drug, so errors due to sample size among genotypes are minimized. Statistical analysis of each pair of polymorphic genotypes was done by the Tukey-Kramer Multiple Comparison Test. Analysis of relative sensitivity of the genotypes to an individual drug was by parametric ANOVA. To determine the relative sensitivity of each pair of genotypes, the relative sensitivity to each drug was calculated by dividing the GI(50) of one genotype by the GI(50) of the other. The relative sensitivities for all the drugs were then averaged. For each pair of genotypes, we also calculated the percent of drugs in which one genotype was more sensitive than the other. […]

Row | SMILES | resistance of XRCC1 R399Q homozygous variant genotype versus homozygous dominant genotype (XRCC1 R399Q, single-drug analysis, p=0.045 Bonferroni adjusted multiple comparison test) | survival of NOS3 t-786c homozygous variant genotype relative to heterozygous genotype [1] [%] | survival of NOS3 t-786c homozygous variant genotype relative to homozygous dominant genotype [1] [%]
1 | CC[C@]1(O)C[C@@H]2CN(CCc3c([nH]c4ccccc34)[C@@](C(=O)OC)(c3cc4c(cc3OC)N(C)[C@H]3[C@@](O)(C(=O)OC)[C@H](OC(C)=O)[C@]5(CC)C=CCN6CC[C@]43[C@@H]65)C2)C1 [vinblastine] | significantly more resistant | – | –
2 | Nc1nc2nc[nH]c2c(=S)[nH]1 [thioguanine, Thioguanine] | – | 35 | 68
